Patent publication US20190209539A1, “THIOHYDANTOIN ANDROGEN RECEPTOR ANTAGONISTS FOR THE TREATMENT OF CANCER” (Janssen Pharmaceutica NV, priority 2016, published 2019)
Where a chain is given by its changes, count along the chain named.

Legend:
[1] = target: T1, wild-type Androgen Receptor (AR-wt) (Homo sapiens, UniProt P10275); test: LNCaP-AR-wt AG: ARE luciferase reporter assay, agonist mode; format: cell-based; settings: maximum % stimulation (agonist response), % of 1 μM R-1881 max
T1 construct: expressed in transfected cells; host or cells: LNCaP AR (cs) cells with ARE firefly luciferase lentiviral construct
T1 sequence (P10275 1-920): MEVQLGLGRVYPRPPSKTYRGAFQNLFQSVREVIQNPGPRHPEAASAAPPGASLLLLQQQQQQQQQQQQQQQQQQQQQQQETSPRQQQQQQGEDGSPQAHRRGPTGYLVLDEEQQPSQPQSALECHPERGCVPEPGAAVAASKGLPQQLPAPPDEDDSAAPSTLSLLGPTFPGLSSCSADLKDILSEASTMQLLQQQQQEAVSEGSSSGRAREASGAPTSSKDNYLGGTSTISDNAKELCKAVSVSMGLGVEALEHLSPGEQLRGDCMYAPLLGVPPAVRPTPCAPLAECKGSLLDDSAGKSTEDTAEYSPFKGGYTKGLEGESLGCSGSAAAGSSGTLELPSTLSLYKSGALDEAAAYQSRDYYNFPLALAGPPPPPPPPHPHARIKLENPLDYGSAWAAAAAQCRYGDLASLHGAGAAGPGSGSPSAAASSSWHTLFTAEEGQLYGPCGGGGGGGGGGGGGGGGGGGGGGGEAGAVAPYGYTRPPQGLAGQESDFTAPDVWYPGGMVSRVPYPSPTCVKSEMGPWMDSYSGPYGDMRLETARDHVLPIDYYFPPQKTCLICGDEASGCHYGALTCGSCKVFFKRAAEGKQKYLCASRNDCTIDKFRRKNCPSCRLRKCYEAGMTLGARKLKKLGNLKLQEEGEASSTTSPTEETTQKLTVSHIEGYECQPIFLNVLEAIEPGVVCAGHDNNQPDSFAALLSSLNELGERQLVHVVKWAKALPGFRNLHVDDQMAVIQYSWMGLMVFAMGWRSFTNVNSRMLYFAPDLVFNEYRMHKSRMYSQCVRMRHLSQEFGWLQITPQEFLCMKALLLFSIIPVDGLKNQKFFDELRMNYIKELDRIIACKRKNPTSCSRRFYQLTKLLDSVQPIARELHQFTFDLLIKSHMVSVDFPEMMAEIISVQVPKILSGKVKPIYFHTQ
Procedure: (§1) A stable pooled-population cell line was generated using puromycin (Life Technologies) selection at 1:10,000 v/v. The protocol below was used for both cell lines and for testing of the compounds of Formula (I) of the present invention.
(§2) LNCaP cells were grown to about 80% confluence, media removed and cells rinsed in Hank's balanced salt solution prior to separation from the plate with 0.05% Trypsin EDTA. Cells were lifted and trypsin negated in complete CSS (charcoal stripped serum) culture media. […] Agonist challenge was at 400 pM for WT assay and 600 pM for F876L assay. Plates containing cells and compounds herein were incubated for a further 20-24 hours at 37° C., 5% CO2 before addition of 40 μL/well of Steady-Glo Luciferase Assay System Reagent (Promega# E2520). After 1 h, plates were read for luminescence on a BMG Pherastar.
(§3) EC/IC50 calculations were achieved utilizing calculated RLU data and data fitting macros. Data were fit using least-squares methods to the following formula: […]
(§4) As used herein: pIC50 is defined as—Log10(IC50 expressed in [Molar]). pEC50 is defined as—Log10(EC50 expressed in [Molar]). […] LNCaP-AR-wt ANT refers to the reporter assay using LNCaP cells stably transfected with the Androgen Response Element Firefly Luciferase lentiviral construct and wild-type Androgen Receptor (AR-wt) in Antagonist mode. LNCaP-AR-wt AG refers to the reporter assay using LNCaP cells stably transfected with the Androgen Response Element Firefly Luciferase lentiviral construct and wild-type Androgen Receptor (AR-wt) in Agonist mode. LNCaP-AR-F876L ANT refers to the reporter assay using LNCaP cells stably transfected with the Androgen Response Element Firefly Luciferase lentiviral construct and F876L mutant Androgen Receptor (AR-F876L) in Antagonist mode. LNCaP-AR-F876L AG refers to the reporter assay using LNCaP cells stably transfected with the Androgen Response Element Firefly Luciferase lentiviral construct and F876L mutant Androgen Receptor (AR-F876L) in Agonist mode.

[2] = target: T2, F876L mutant Androgen Receptor (AR-F876L) (Homo sapiens, UniProt P10275, F877L); test: LNCaP-AR-F876L AG: ARE luciferase reporter assay, agonist mode; format: cell-based; settings: maximum % stimulation (agonist response), % of 1 μM R-1881 max
T2 construct: expressed in transfected cells; host or cells: LNCaP F876L cells with ARE firefly luciferase lentiviral construct
T2 sequence (P10275 1-920 F877L): T1 sequence (P10275 1-920) with F877L
Procedure: as §1, §2, §3, §4

Row | Structure (SMILES) | LNCaP-AR-wt AG MAX % Stim [1] [%] | LNCaP-AR-F876L AG MAX % Stim [2] [%]
1 | Cc1cc(N2C(=O)C3(CCC3)N(c3ccc(C(=O)NC4CCOCC4)c(F)c3)C2=S)cnc1C#N [Cpd 2, 4-[6-(6-cyano-5-methyl-3-pyridyl)-5-oxo-7-thioxo-6,8-diazaspiro[3.4]octan-8-yl]-2-fluoro-N-tetrahydropyran-4-yl-benzamide] | 0.8 | −0.4
2 | N#Cc1ncc(N2C(=O)C3(CCC3)N(c3cccc(CO)c3)C2=S)cc1C(F)(F)F [Cpd 81, 5-[8-[3-(hydroxymethyl)phenyl]-5-oxo-7-thioxo-6,8-diazaspiro[3.4]octan-6-yl]-3-(trifluoromethyl)pyridine-2-carbonitrile] | 0.7 | 1.2
3 | N#Cc1ncc(N2C(=O)C3(CCC3)N(c3ccc(C(=O)NCc4ccccc4Cl)c(F)c3)C2=S)cc1C(F)(F)F [Cpd 31, N-[(2-chlorophenyl)methyl]-4-[6-[6-cyano-5-(trifluoromethyl)-3-pyridyl]-5-oxo-7-thioxo-6,8-diazaspiro[3.4]octan-8-yl]-2-fluoro-benzamide] | 0.2 | 0.3
4 | C#CCNC(=O)c1ccc(N2C(=S)N(c3cnc(C#N)c(C(F)(F)F)c3)C(=O)C23CCC3)cc1F [Cpd 111, 4-[6-[6-cyano-5-(trifluoromethyl)-3-pyridyl]-5-oxo-7-thioxo-6,8-diazaspiro[3.4]octan-8-yl]-2-fluoro-N-prop-2-ynyl-benzamide] | 0.5 | 2.7
5 | CN1CCC(Oc2ccc(N3C(=S)N(c4cnc(C#N)c(C(F)(F)F)c4)C(=O)C34CCC4)cc2F)CC1 [Cpd 28, 5-[8-[3-fluoro-4-[(1-methyl-4-piperidyl)oxy]phenyl]-5-oxo-7-thioxo-6,8-diazaspiro[3.4]octan-6-yl]-3-(trifluoromethyl)pyridine-2-carbonitrile] | −0.1 | 0.0
6 | N#Cc1ncc(N2C(=O)C3(CCC3)N(c3ccc(Oc4cncnc4)cc3)C2=S)cc1C(F)(F)F [Cpd 88, 5-[5-oxo-8-(4-pyrimidin-5-yloxyphenyl)-7-thioxo-6,8-diazaspiro[3.4]octan-6-yl]-3-(trifluoromethyl)pyridine-2-carbonitrile] | 0.7 | 0.7
7 | N#Cc1ncc(N2C(=O)C3(CCC3)N(c3cccnc3)C2=S)cc1C(F)(F)F [Cpd 9, 5-[5-oxo-8-(3-pyridyl)-7-thioxo-6,8-diazaspiro[3.4]octan-6-yl]-3-(trifluoromethyl)pyridine-2-carbonitrile] | −0.2 | 0.0
8 | N#Cc1ncc(N2C(=O)C3(CCC3)N(c3ccc(C(=O)NCCCc4ccccc4)c(F)c3)C2=S)cc1C(F)(F)F [Cpd 57, 4-[6-[6-cyano-5-(trifluoromethyl)-3-pyridyl]-5-oxo-7-thioxo-6,8-diazaspiro[3.4]octan-8-yl]-2-fluoro-N-(3-phenylpropyl)benzamide] | 0.0 | 0.5
9 | Cc1cncc(-c2ccc(N3C(=S)N(c4cnc(C#N)c(C)c4)C(=O)C34CCC4)cc2)c1 [Cpd 114, 3-methyl-5-[8-[4-(5-methyl-3-pyridyl)phenyl]-5-oxo-7-thioxo-6,8-diazaspiro[3.4]octan-6-yl]pyridine-2-carbonitrile] | 0.7 | 3.3
10 | N#Cc1ncc(N2C(=O)C3(CCC3)N(c3cccc4ccccc34)C2=S)cc1C(F)(F)F [Cpd 34, 5-[8-(1-naphthyl)-5-oxo-7-thioxo-6,8-diazaspiro[3.4]octan-6-yl]-3-(trifluoromethyl)pyridine-2-carbonitrile] | −0.1 | 0.2
11 | Cc1cc(N2C(=O)C3(CCC3)N(c3ccc(-c4cncnc4)cc3)C2=S)cnc1C#N [Cpd 93, 3-methyl-5-[5-oxo-8-(4-pyrimidin-5-ylphenyl)-7-thioxo-6,8-diazaspiro[3.4]octan-6-yl]pyridine-2-carbonitrile] | 0.9 | 0.8
12 | CC(C)CCNC(=O)c1ccc(N2C(=S)N(c3cnc(C#N)c(C(F)(F)F)c3)C(=O)C23CCC3)cc1F [Cpd 27, 4-[6-[6-cyano-5-(trifluoromethyl)-3-pyridyl]-5-oxo-7-thioxo-6,8-diazaspiro[3.4]octan-8-yl]-2-fluoro-N-isopentyl-benzamide] | 0.4 | 0.2
13 | N#Cc1ncc(N2C(=O)C3(CCC3)N(c3ccc(Oc4ccccn4)cc3)C2=S)cc1C(F)(F)F [Cpd 103, 5-[5-oxo-8-[4-(2-pyridyloxy)phenyl]-7-thioxo-6,8-diazaspiro[3.4]octan-6-yl]-3-(trifluoromethyl)pyridine-2-carbonitrile] | 4.0 | 2.0
14 | CNC(=O)c1ccc(N2C(=S)N(c3cnc(C#N)c(C)c3)C(=O)C2(C)C)cc1F [Cpd 12, 4-[3-(6-cyano-5-methyl-3-pyridyl)-5,5-dimethyl-4-oxo-2-thioxo-imidazolidin-1-yl]-2-fluoro-N-methyl-benzamide] | 0.9 | −0.3
15 | N#Cc1ncc(N2C(=O)C3(CCC3)N(c3ccc4[nH]ncc4c3)C2=S)cc1C(F)(F)F [Cpd 92, 5-[8-(1H-indazol-5-yl)-5-oxo-7-thioxo-6,8-diazaspiro[3.4]octan-6-yl]-3-(trifluoromethyl)pyridine-2-carbonitrile] | 2.8 | 1.3
16 | N#Cc1ncc(N2C(=O)C3(CCC3)N(c3ccc(C(=O)NCc4cccnc4)c(F)c3)C2=S)cc1C(F)(F)F [Cpd 67, 4-[6-[6-cyano-5-(trifluoromethyl)-3-pyridyl]-5-oxo-7-thioxo-6,8-diazaspiro[3.4]octan-8-yl]-2-fluoro-N-(3-pyridylmethyl)benzamide] | 1.5 | 0.8
